Laboratory results as given in ChEMBL document CHEMBL1201862, “PubChem BioAssay data set” (2004).
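Compound exposure: 48 hours, 5 concentrations, 96-well plates. Abbreviation: GI50, concentration required for 50% inhibition of growth.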 Active and inactive are the calls of the source. Cut-off read from the data, not from the text of the source: active = GI50 up to about 1.1 µM and inactive = higher.

Assays:
Assay in all cases: NCI anticancer screen, dose series, 48 h
[1] = test system: RXF 631
[2] = test system: SNB-78
[3] = test system: DMS-114
[4] = test system: HOP-18
[5] = test system: KM-20L2
[6] = test system: DMS-273
[7] = test system: M19-MEL
[8] = test system: LXFL 529

| Structure (SMILES) | GI50 [1] | GI50 [2] | GI50 [3] | GI50 [4] | GI50 [5] | GI50 [6] | GI50 [7] | GI50 [8] |
| --- | --- | --- | --- | --- | --- | --- | --- | --- |
| COc1c(OC(C)=O)cc2c(OC(C)=O)c1CC(C)CC(OC)C(O)C(C)/C=C(\C)C(OC(N)=O)C(OC)/C=C\C=C(/C)C(=O)N2 (stereo not drawn) | > 100 µM (inactive) | > 100 µM (inactive) | > 64.7 µM (inactive) | > 100 µM (inactive) | > 62.1 µM (inactive) | > 70.1 µM (inactive) | > 76.4 µM (inactive) | 49 µM (inactive) |
| COc1cc(C2=NN(C)C(c3ccc([N+](=O)[O-])o3)C2)cc(OC)c1OC (stereo not drawn) | 51.5 µM (inactive) | > 100 µM (inactive) | 35.6 µM (inactive) | > 100 µM (inactive) | > 100 µM (inactive) | > 100 µM (inactive) | 29.8 µM (inactive) | 38.5 µM (inactive) |
| COc1ccc(OC)c(-c2cc(O)c3cc4c(cc3n2)OCO4)c1 | – | 6.98 µM (inactive) | 3.68 µM (inactive) | > 96.2 µM (inactive) | 4.14 µM (inactive) | 4.06 µM (inactive) | 4.21 µM (inactive) | 6.92 µM (inactive) |
| CCOC(=O)/C(C#N)=C/c1[nH]c(C)c(C)c1C | – | > 100 µM (inactive) | > 100 µM (inactive) | > 100 µM (inactive) | > 100 µM (inactive) | > 100 µM (inactive) | > 100 µM (inactive) | > 100 µM (inactive) |
| COc1cc(C(=O)N2CCc3c([nH]c4c([N+](=O)[O-])c(OC)ccc34)C2C)cc(OC)c1OC (stereo not drawn) | 79.6 µM (inactive) | 58.7 µM (inactive) | > 100 µM (inactive) | – | > 100 µM (inactive) | > 100 µM (inactive) | – | > 100 µM (inactive) |
| CC1=C(C(=O)Nc2ccc([N+](=O)[O-])cc2)C(c2ccccc2O)C(C(=O)Nc2ccc([N+](=O)[O-])cc2)=C(C)N1 | 15.4 µM (inactive) | 30.5 µM (inactive) | 15.3 µM (inactive) | – | 14.5 µM (inactive) | 23.3 µM (inactive) | 20.5 µM (inactive) | 19.1 µM (inactive) |
| COc1cc([C@@H]2c3cc4c(cc3[C@@H](NCc3ccc(C#N)cc3)C3COC(=O)[C@@H]32)OCO4)cc(OC)c1O (stereo partly drawn) | – | 4.74 µM (inactive) | 1.2 µM (inactive) | 95.3 µM (inactive) | 1.08 µM (active) | 0.326 µM (active) | 1.82 µM (inactive) | 4.5 µM (inactive) |
| CS(=O)(=O)OCCn1cnc2nc(NC(=O)c3ccccc3)[nH]c(=O)c21 | > 100 µM (inactive) | > 100 µM (inactive) | > 100 µM (inactive) | > 100 µM (inactive) | > 100 µM (inactive) | > 100 µM (inactive) | > 100 µM (inactive) | > 100 µM (inactive) |
| NC(=O)C(=O)CC(=O)c1ccccc1NC1=CC(=O)C(=O)c2ccccc21 | > 100 µM (inactive) | 58.6 µM (inactive) | 16.7 µM (inactive) | > 100 µM (inactive) | > 100 µM (inactive) | 53.1 µM (inactive) | 7.74 µM (inactive) | 50.6 µM (inactive) |
| NNC(=O)N/N=C1\CN(c2ccc(Cl)cc2Cl)C(=O)C(=O)C1c1nc2ccccc2o1 (stereo not drawn) | > 100 µM (inactive) | 39.1 µM (inactive) | > 100 µM (inactive) | – | > 100 µM (inactive) | > 100 µM (inactive) | > 100 µM (inactive) | > 100 µM (inactive) |
| O=C(c1ccccc1)N1C2CCC1C(C(F)(F)F)=C2C(F)(F)F | > 100 µM (inactive) | > 100 µM (inactive) | > 100 µM (inactive) | > 100 µM (inactive) | > 100 µM (inactive) | > 100 µM (inactive) | > 100 µM (inactive) | > 100 µM (inactive) |
| O=C1c2cnccc2Cc2cccc3c2N1c1ccccc1S3 | 26.1 µM (inactive) | – | 26.4 µM (inactive) | – | 17.6 µM (inactive) | 22.9 µM (inactive) | 28.9 µM (inactive) | 27.5 µM (inactive) |
| Cc1cccc(C)c1N1C(=O)C(=O)C(c2nc3ccccc3s2)/C(=N/c2cccc3c(=O)[nH][nH]c(=O)c23)C1=O (stereo not drawn) | – | > 100 µM (inactive) | – | > 100 µM (inactive) | > 100 µM (inactive) | > 100 µM (inactive) | > 100 µM (inactive) | > 100 µM (inactive) |
| CCOCc1cc(=O)c2cc3c(cc2o1)OC(C)(C)CC3 | > 100 µM (inactive) | > 100 µM (inactive) | 62.7 µM (inactive) | > 100 µM (inactive) | > 100 µM (inactive) | 48.5 µM (inactive) | > 100 µM (inactive) | 92.7 µM (inactive) |
| O=C(O)/C(Cl)=C(\Cl)C(=O)Nc1ccccc1 | > 100 µM (inactive) | > 100 µM (inactive) | – | > 100 µM (inactive) | > 100 µM (inactive) | > 100 µM (inactive) | > 100 µM (inactive) | > 100 µM (inactive) |
| COc1ccc2c3c(c(C(=O)O)oc13)C(CCC(=O)O)CC2 (stereo not drawn) | – | > 100 µM (inactive) | > 100 µM (inactive) | > 100 µM (inactive) | > 100 µM (inactive) | > 100 µM (inactive) | – | > 100 µM (inactive) |
| CCCCCCCCCCCCCC(=O)OC1CC(=O)OC1CO (stereo not drawn) | – | 37.8 µM (inactive) | 35.7 µM (inactive) | 21.6 µM (inactive) | 50.7 µM (inactive) | > 100 µM (inactive) | > 100 µM (inactive) | 89.3 µM (inactive) |
| CCc1cc(Cc2cc(CC)c(NC(=O)C(=O)Cc3ccccn3)c(CC)c2Cl)c(Cl)c(CC)c1NC(=O)C(=O)Cc1ccccn1 | – | > 100 µM (inactive) | 96.8 µM (inactive) | > 100 µM (inactive) | > 100 µM (inactive) | > 100 µM (inactive) | > 100 µM (inactive) | 53 µM (inactive) |
| Oc1cc(-c2cccs2)nc2cc3c(cc12)OCO3 | 28.2 µM (inactive) | 7.36 µM (inactive) | 3.93 µM (inactive) | > 100 µM (inactive) | 15.9 µM (inactive) | 3.34 µM (inactive) | 3.34 µM (inactive) | 4.79 µM (inactive) |
| Cc1cc(N(CCC#N)CCC#N)ccc1/N=N/c1ccccc1[N+](=O)[O-] | > 100 µM (inactive) | > 100 µM (inactive) | > 100 µM (inactive) | > 100 µM (inactive) | – | > 100 µM (inactive) | > 100 µM (inactive) | > 100 µM (inactive) |
| CCOC(=O)C(=O)Nc1cc(Cl)c(Cl)cc1Cl | > 100 µM (inactive) | > 100 µM (inactive) | > 100 µM (inactive) | – | > 100 µM (inactive) | > 100 µM (inactive) | > 100 µM (inactive) | > 100 µM (inactive) |
| O=[N+]([O-])c1ccc(Cl)c(C2CC(c3cccc4ccccc34)=Nc3ccccc3[S+]2[O-])c1 (stereo not drawn) | 29.4 µM (inactive) | 11.4 µM (inactive) | 14.9 µM (inactive) | 24.2 µM (inactive) | 20.2 µM (inactive) | 19.2 µM (inactive) | 20.6 µM (inactive) | 13.3 µM (inactive) |
